In patent US6586391B1, “Method of ameliorating erectile dysfunction” (Queen's University at Kingston, priority 1996, dated 2003):

What was measured:
[1] = test system: pudendal vasculature; experiment: Isolated perfusion of the pudendal vasculature, perfusion pressure response; design: species or system rat
Procedure: Vascular responses using the isolated perfusion of the pudendal vasculature preparation have been assessed. FIG. 3 illustrates the dose response curve to the α-adrenoceptor agonist methoxamine (MXA) alone. FIG. 4 illustrates the dose-response curve to endothelin alone.
Male Wistar rats (400-500 g), obtained from Charles River Laboratories (Montreal, Quebec, Canada), were housed individually under conditions of a 12 h light/12 h dark cycle (temperature of 22-24° C.), and were provided with Purina Rodent Chow and tap water ad libitum for at least two days before starting any experiment.
The rats were anaesthetized with sodium pentabarbital (60 mg/kg i.p.) and the lower abdominal aorta was exposed through a mid-line incision. The isolation of the pudendal vasculature was developed by sequential ligation of all branches of the abdominal aorta not directly supplying the pudendal vasculature. The following arteries were dissected free and ligated: iliaca, femoralis, poplitea, glutea cranial, umbilicalis, epigastria caudal, pudenda external, glutea caudal, obturatoria, circumflexa femoris lateral, circumflexa femoris medial. After heparinization (1000 U/kg), the abdominal aorta was cannulated with a smooth, blunted 19-gauge needle. The arterial catheter was placed caudad into the aorta and the vena cava was cut and vented freely through the widely open abdominal cavity. The tip of the needle was advanced down the aorta to the iliac bifurcation and sutured in place. […] The perfusate was infused for 10 min, to flush the penile vasculature of blood, before starting any experiment.
The perfusate consisted of dextran (15%, average molecular weight: 71,400 Da, Sigma, St. Louis, Mo., U.S.A.) in Tyrode's solution (pH 7.4), which was aerated with 95% O2 and 5% CO2. The composition of the Tyrode's solution was KCI 20, CaCl2.2H2O 32.3, MgCl2.6H2O 5.1, NaH2PO4.2H2O 6.2, NaHCO3 100, glucose 100, and NaCl 800 mg per 100 mL fluid. The perfusate was held in a reservoir, and passed through a bubble trapping/mixing chamber and heating bath by an injection port located prior to the bubble trap for the introduction of pharmacological agents. An in-line peristaltic pump was used to establish flow at 0.5 mL/kg/min (Minipuls 2, Gilson Medical Elec., Inc., Middleton, Wis., U.S.A.). Added pharmacological agents, methoxamine (MXA) and sodium nitroprusside (SNP), were delivered by a syringe pump (Harvard Apparatus Infusion/Withdrawal Pump, Millis, Mass., U.S.A.). A servo-controlled heat chamber served to maintain rectal temperature at 36-38° C.

[2] = test system: Male Sprague-Dawley rats; experiment: Experiment 2: effects of PD 145065 or losartan before or after NOS blockade on MAP; assay type: in vivo, rat
Procedure: (§1) Male Sprague-Dawley rats (325-400 g) obtained from Charles River Laboratories (Montreal, Quebec, Canada) were housed individually under conditions of a 12 h light/12 h dark cycle, with room temperature at 22-24° C., and were provided with Purina Rodent Chow and tap water ad libitum for at least 2 days before any experiments were started.
The surgical method was based on the technique of Thompson et at. (Hypertension 20: 809-815 (1992)). […] Two days after surgery, MAP could be recorded (Narco Physiograph, E&I Instruments, Houston, Tex. or MacLab Data Acquisition System, ADInstruments, Milford, Mass., U.S.A.). […] Baseline MAP was determined from mean readings over 5 min, taken from each rat at 15 min intervals for at least 1 h prior to the start of any experiment. […] MAP values are expressed as an average MAP over 2-3 min following the establishment of a new steady state (i.e., MAP is no longer changing).
After obtaining appropriate baseline steady-state levels of MAP, the effects of administration of losartan (30 mg/kg i.p., n=3, under 30 mg/kg i.p. pentabarbital anesthetic) or PD 145065 (10 mg/kg/min, i,v., n=6, conscious rats previously catheterized) on resting MAP and then on the L-NAME (100 mg/kg, i.p.)-induced pressor response were assessed in two ways. […]

[3] = test system: Male Sprague-Dawley rats; experiment: Experiment 1: cumulative vasoconstrictor blockade following acute NO synthase inhibition, MAP response; assay type: in vivo, rat; conditions: for % of range (MAP lowering as % of MAPrange) / delta MAP (peak MAP lowering): sequential cumulative blockade, mean ± S.D.
Procedure: as §1
The surgical method was based on the technique of Thompson et at. (Hypertension 20: 809-815 (1992)). In brief, rats were anesthetized with ketamine/xylazine (70/5 mg/kg i.p.), and the descending aorta distal to the kidneys was catheterized with small bore TEFLON® tubing (0.012-in. i.d., o.d. 30 gauge, Cole-Parmer, Laval, Quebec, Canada) inserted into vinyl tubing (0.02-in. i.d., 0.060-in, o.d., 23 gauge). […] The catheters were filled with heparinized saline (10 IU/mL) and held in place by a small amount of cyanoacrylate tissue glue at the puncture site. The catheters were tunneled subcutaneously and exteriorized at the back of the neck and sutured in place. Two days after surgery, MAP could be recorded (Narco Physiograph, E&I Instruments, Houston, Tex. or MacLab Data Acquisition System, ADInstruments, Milford, Mass., U.S.A.). After connection, an equilibration period of approximately 30 min was allowed for the determination of the steady state level of MAP before any recording began. Baseline MAP was determined from mean readings over 5 min, taken from each rat at 15 min intervals for at least 1 h prior to the start of any experiment. After obtaining a baseline MAP, the cumulative/sequential vasoconstrictor blockade was started. MAP values are expressed as an average MAP over 2-3 min following the establishment of a new steady state (i.e., MAP is no longer changing).
NOS was inhibited by a single i.p. injection of N^ω-nitro-L-arginine-methyl ester (L-NAME, Sigma, 100 mg/kg; 100 mg/mL 0.9% sterile saline solution, Baxter Corp., Toronto, Ontario, Canada). The α1-adrenoceptor antagonist prazosin® (Sigma Chemical Company, St. Louis, Mo., U.S.A.) at a dose of 1 mg/Kg (in 0.9% saline and 5% ethanol [vol/vol], total volume 1 mL/kg) was used to block the majority of the SNS induced peripheral vasoconstriction. The non-peptide AT1 receptor antagonist losartan® (Dupont-Merck, 30 mg/kg i.p.) was used to block the effects of Ang II. The V1/V2 receptor antagonist [β-mercapto-β, β-cyclopenta-methylenepropionyl, O-Et-Tyr2-Val4-Arg8]-vasopressin (AVP) (20 μg/kg/min i.v., Sigma) was utilized to block the effects of vasopressin. The effects of the endothelin vasoconstrictor system, via ETA and ETB receptors, were blocked with a commercially available endothelin antagonist PD 145065 (100 mg/kg/min i.v., bolus, donated by Parke-Davis Pharmaceuticals). Each rat in the study received all of the aforementioned vasoconstrictor antagonists (i.e., a cumulative/sequential blockade).
The interval between administration was up to 15 min, where a new steady state MAP had been established before the blockade of the next vasoconstrictor system.
All data are expressed as a peak MAP lowering as a mean±S.D. Comparison of means between groups at each treatment level was done using a Student's T-test with the Bonferroni correction method, where appropriate.

[4] = test system: adult Wistar rats; experiment: Apomorphine-induced erection model; assay type: in vivo, rat
Procedure: Using the well-established apomorphine (APO)-induced erection model (apomorphine 80 μg/kg, administered subcutaneously), we counted the erections per 30 min interval in adult Wistar rats, per the protocol of Heaton, J. P. W., et al. (1991)(43). Rats were pretested with apomorphine alone to confirm and quantify normal erectile response(control Groups A and B). Rats were then treated with L-NAME (100 mg/kg, administered intraperitoneally) alone, acutely (at<1 h) and at 3 h; or the combination of ETA/B antagonist (PD 145065, 5 mg/kg/min, continuous intravenous infusion)+L-NAME.

[5] = background statement; cited from earlier work
[6] = L-NAME (100 mg/kg i.p.) treated group

CC[C@H](C)[C@H](NC(=O)[C@H](CC(=O)O)NC(=O)[C@H](CC(C)C)NC(=O)[C@H](Cc1c[nH]cn1)NC(=O)[C@@H]1CSSC[C@H](N)C(=O)N[C@@H](CO)C(=O)N[C@H]2CSSC[C@H](NC(=O)[C@H](CCC(=O)O)NC(=O)[C@H](CCCCN)NC(=O)[C@H](CC(=O)O)NC(=O)[C@H](CCSC)NC(=O)[C@H](CC(C)C)NC(=O)[C@H](CO)NC(=O)[C@H](CO)NC2=O)C(=O)N[C@@H](C(C)C)C(=O)N[C@@H](Cc2ccc(O)cc2)C(=O)N[C@@H](Cc2ccccc2)C(=O)N1)C(=O)N[C@H](C(=O)N[C@@H](Cc1c[nH]c2ccccc12)C(=O)O)[C@@H](C)CC [Endothelin]
Δ Perfusion Pressure ([1]; Endothelin sub-pressor alone, methoxamine 0 μg/ml, n = 4): 0 mmHg

COC(=O)[C@@H](N)CCCNC(=N)N[N+](=O)[O-] [L-NAME, N^ω-nitro-L-arginine-methyl ester]
delta MAP response 20 min after L-NAME ([2]; saline pre-treatment group, L-NAME 100 mg/kg i.p.): 40±8 mmHg
steady state level of MAP ([3]; L-NAME-treated animals, before vasoconstrictor blockade): 108±9 mmHg
experimentally induced pressure increase as a result of NOS inhibition ([3]; rats): 30-40%
mean number of erections per 30 min interval ([4]; L-NAME 100 mg/kg i.p. alone, at 3 h, apomorphine-induced): 3.7 ± 1.38

CN1CCc2cccc3c2[C@H]1Cc1ccc(O)c(O)c1-3 [apomorphine]
mean number of erections per 30 min interval ([4]; Group-A (control): apomorphine 80 μg/kg s.c. alone, mean ± S.D.): 3.0 ± 1.31
mean number of erections per 30 min interval ([4]; Group-B (control): apomorphine 80 μg/kg s.c. alone, mean ± S.D.): 2.5 ± 0.58

CCCCc1nc(Cl)c(CO)n1Cc1ccc(-c2ccccc2-c2nn[nH]n2)cc1 [losartan]
level of MAP after treatment ([2]; losartan 30 mg/kg i.p., pentabarbital anesthetic, baseline 100±15 mmHg): 78±21 mmHg
% of range (MAP lowering as % of MAPrange) [3, 6]: 24 ± 12%
delta MAP (peak MAP lowering) [3, 6]: 25 ± 13 mmHg
% of range (MAP lowering as % of MAPrange) ([3]; saline control group): 27 ± 8%
delta MAP (peak MAP lowering) ([3]; saline control group): 20 ± 6 mmHg

COc1ccc(OC)c(C(O)C(C)N)c1 (stereo not drawn) [methoxamine]
Δ Perfusion Pressure ([1]; Control, methoxamine 0.1 μg/ml, n = 6): 0 mmHg
Δ Perfusion Pressure ([1]; Control, methoxamine 0.25 μg/ml, n = 6): 0 mmHg
Δ Perfusion Pressure ([1]; Control, methoxamine 0.5 μg/ml, n = 6): 0 mmHg
Δ Perfusion Pressure ([1]; Control, methoxamine 1.0 μg/ml, n = 6): 4 ± 1 mmHg
Δ Perfusion Pressure ([1]; Control, methoxamine 2.0 μg/ml, n = 6): 11 ± 2 mmHg
Δ Perfusion Pressure ([1]; Control, methoxamine 4.0 μg/ml, n = 6): 36 ± 11 mmHg
Δ Perfusion Pressure ([1]; Control, methoxamine 8.0 μg/ml, n = 6): 67 ± 24 mmHg
Δ Perfusion Pressure ([1]; Endothelin sub-pressor, methoxamine 0.1 μg/ml, n = 4): 0 mmHg
Δ Perfusion Pressure ([1]; Endothelin sub-pressor, methoxamine 0.25 μg/ml, n = 4): 34 ± 2 mmHg
Δ Perfusion Pressure ([1]; Endothelin sub-pressor, methoxamine 0.5 μg/ml, n = 4): 93 ± 30 mmHg
Δ Perfusion Pressure ([1]; Endothelin sub-pressor, methoxamine 1.0 μg/ml, n = 4): 168 ± 16 mmHg
shift of MXA concentration-response (perfusion pressure) relationship to lower concentrations ([1]; with low sub-pressor dose of endothelin vs MXA alone): more than 10 fold

COc1cc2nc(N3CCN(C(=O)c4ccco4)CC3)nc(N)c2cc1OC [prazosin]
% of range (MAP lowering as % of MAPrange) [3, 6]: 25 ± 10 %
delta MAP (peak MAP lowering) [3, 6]: 27 ± 14 mmHg
% of range (MAP lowering as % of MAPrange) ([3]; saline control group): 48 ± 8%
delta MAP (peak MAP lowering) ([3]; saline control group): 36 ± 6 mmHg

ET-1: endothelin-1, vasoconstrictor peptide
potency as a vasoconstrictor relative to Ang II or catecholamines [5]: approximately 100 times

[β-mercapto-β, β-cyclopenta-methylenepropionyl, O-Et-Tyr2-Val4-Arg8]-vasopressin [(O-ET)VAVP]
% of range (MAP lowering as % of MAPrange) [3, 6]: 15 ± 9 %
delta MAP (peak MAP lowering) [3, 6]: 19 ± 13 mmHg
% of range (MAP lowering as % of MAPrange) ([3]; saline control group): 37 ± 15%
delta MAP (peak MAP lowering) ([3]; saline control group): 21 ± 11 mmHg
